Counter-ions that a name gives are not always drawn.

Data set [1] deals with Prostaglandin E2 concentrations in sponge exudates. As to the kind of experiment: Prostaglandin synthesis in carrageenin sponge inflammatory exudate. Type of data set: in vivo. The conditions noted are these: Rattus norvegicus, po; male rats, sponges impregnated with 2% carrageenin, exudates collected 24 hours after implantation; read-out: ED50 (mg/kg p.o.) Prostaglandin Production (rat). The method, then:
(§1) The compound of Example 1 was subjected to the following tests. Results are given in Table II as ED50 mg/kg upon oral administration. Results are also provided by way of comparison for the compound 3-methylamino-1-(3-trifluoromethylphenyl)-2-pyrazoline (Compound A) which is disclosed in European Specification 55 418.
(§2) Inflammatory exudates were collected 24 hours after the subcutaneous implantation in male rats (180-220g) of sterile polyester sponges impregnated with 2% carrageenin. Prostaglandin E2 concentrations in sponge exudates were measured by bioassay and total leucocyte numbers were estimated using counting chambers and phase contrast microscopy. Drugs were administered orally in aqueous solution to groups of five animals at the time of sponge implantation, 5-8 hours later and 3 hours before sponge removal. Results are expressed as a percentage of control values obtained from similar groups of animals receiving vehicle alone. ED50 values were calculated for active compounds. The full dose-response data for lead compounds were subjected to regression analysis and ED50 values with 95% confidence limits have been obtained.

In data set [2] the test system is Carrageenin Oedema. The experiment in a line: Carrageenin-induced hind paw oedema. Type of data set: in vivo. The conditions noted are these: Rattus norvegicus, po; female rats, sub-plantar 2% carrageenin, swelling measured 1-4 hours after injection. The method, then:
as §1
Oedema was induced by the sub-plantar injection of 2% carrageenin (0.1 ml) in the hind paws of female rats (100-i30g). Swelling was measured 1-4 hours following carrageenin injection using a micrometer gauge. Drugs in aqueous solution were administered orally to groups of five rats at the time of carrageenin injection. Mean swelling was expressed as a percentage of control values obtained from similar groups of animals receiving vehicle alone.

In data set [3] the test system is total leucocyte numbers. The experiment in a line: Leucocyte accumulation in carrageenin sponge inflammatory exudate. Type of data set: in vivo. The settings on record: Rattus norvegicus, po, male rats, sponges impregnated with 2% carrageenin, exudates collected 24 hours after implantation, read-out: ED50 (mg/kg p.o.) Leucocyte Migration (rat). The method, then: as §1, §2

In data set [4] the test system is PBQ Writhing. As to the kind of experiment: Phenylbenzoquinone (PBQ) induced writhing (pain). Format: in vivo. The conditions noted are these: Mus musculus, po; p.o. 1 hour before PBQ 2.5 mg/kg i.p.; female mice. The method, then: as §1
Writhing was induced in groups of 5 female mice (20-25g) following the intraperitoneal injection of phenylbenzoquinone (PBQ; 2.5 mg/kg). Anti-nociceptive effects of drugs were assessed by observing the reduction in writhing responses 10-12½ min after PBQ injection. Drugs were administered orally in aqueous solution 1 hour before PBQ injection and drug effects were expressed as a percentage of control values obtained from animals receiving vehicle alone.

In data set [5] the target is Cyclooxygenase. The experiment in a line: Enzyme assay, inhibition of cyclooxygenase (method closely based on Borgeat et al). Type of data set: biochemical.
Data set [6] is described as follows: Toxicity: ulcerogenicity. Type of data set: in vivo. The settings on record: rat, doses in the range 50-100 mg/kg.

For the compound `CNC1=NN(c2cccc(C(F)(F)F)c2)CC1` [Compound A, 3-methylamino-1-(3-trifluoromethylphenyl)-2-pyrazoline, reference compound], the ED50 was found to be 20 mg/kg in data set [1], 26 mg/kg in data set [2], 20 mg/kg in data set [3] and 20 mg/kg in data set [4].

The term IC50 denotes the concentration that gives 50% inhibition. A lower IC50 goes with higher potency. For `CSc1cccc(N2CCC(N)=N2)c1` [Example 1, 3-amino-1-(3-methylthiophenyl)-2-pyrazoline], the ED50 in data set [1] was determined as 14 mg/kg; in data set [2], 20 mg/kg; in data set [3], 6.5 mg/kg; in data set [4] it was 15 mg/kg. Moreover, the IC50 in data set [5] came to 4.7 µM. The ulcerogenic entry in data set [6] was “not to be ulcerogenic”.

Regarding `CNC1=NN(c2cccc(SC)c2)CC1` [Example 3, 3-methylamino-1-(3-methylthiophenyl)-2-pyrazoline hydrobromide], in data set [5], the midpoint of inhibition, the IC50, lay at 10 µM.

`C#CCNC1=NN(c2cccc(SC)c2)CC1` [Example 7, 1-(3-Methylthiophenyl)-3-(2-propynylamino)-2-pyrazoline hydrochloride]: the IC50 in data set [5] was above 1 µM.

These data come from patent publication EP0119449A1, “Aminopyrazoline derivatives” (THE WELLCOME FOUNDATION LIMITED, priority 1983, dated 1984).
